Reference: US20230150980A1, “COLLAGEN 1 TRANSLATION INHIBITORS AND METHODS OF USE THEREOF” (Anima Biotech Inc., priority 2020, published 2023)

System: collagen 1
Experiment: WI-38 collagen 1 inhibition assay (anti-Collagen I immunofluorescence);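 further: minus sign means inactive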
Assay type: cell-based
Conditions: cellular EC50, WI-38 human lung fibroblasts, values are LogEC50 classes

| SMILES | COL1 Efficacy (LogEC50) |
| --- | --- |
| Cn1cc(N2CCN(Cc3cc4ccc(F)cc4[nH]3)CC2)nn1 [compound 331] | − |
| c1ccc2oc(CN3CCN(c4c[nH]nn4)CC3)nc2c1 [compound 332] | − |
| Cc1ncnc(N2CCN(Cc3nc4ccc(F)cc4o3)CC2)c1C(N)=O [compound 333] | − |
| Cc1ncnc(N2CC3CC2CN3Cc2nc3ccc(F)cc3o2)c1C (stereo not drawn) [compound 334, 2-((5-(5,6-dimethylpyrimidin-4-yl)-2,5-diazabicyclo[2.2.1]heptan-2-yl)methyl)-6-fluorobenzo[d]oxazole] | +++ (+++: <−6) |
| Cc1ncnc(N2CCN(Cc3nc4ccccc4o3)CC2)c1C=O [compound 336, 4-(4-(benzo[d]oxazol-2-ylmethyl)piperazin-1-yl)-6-methylpyrimidine-5-carbaldehyde] | ++ (++: −5 to −6) |
| C#CCCC1(CCOc2cncnc2N2CCN(Cc3cc4ccccc4[nH]3)CC2)N=N1 [compound 337, 2-((4-(5-(2-(3-(but-3-yn-1-yl)-3H-diazirin-3-yl)ethoxy)pyrimidin-4-yl)piperazin-1-yl)methyl)-1H-indole] | ++ (++: −5 to −6) |
| C#CCCC1(CCOc2ccc3cc(CN4CCN(c5ncncc5CC)CC4)[nH]c3c2)N=N1 [compound 338, 6-(2-(3-(but-3-yn-1-yl)-3H-diazirin-3-yl)ethoxy)-2-((4-(5-ethylpyrimidin-4-yl)piperazin-1-yl)methyl)-1H-indole] | +++ (+++: <−6) |
| CC(C)n1cc(N2CCN(Cc3nc4ccccc4o3)CC2)nn1 [compound 339] | − |
| Cn1cnc(N2CCN(Cc3nc4ccccc4o3)CC2)c1 [compound 340] | − |
